Tests used:
[1] = tested on: Caenorhabditis elegans N2; test: food intake (delta OD600 day1-day4, bacterial clearance) (OD600 units); higher = more food eaten; conditions: genotype: wt, 72 h
Caenorhabditis elegans = test: as above; conditions: 72 h
Procedure: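 C. elegans N2 or ser-5(vq1) knockout adults in 96-well plates treated with olanzapine, quetiapine, ziprasidone or serotonin over a dose range. Food intake was measured as bacterial clearance, delta OD600 from day 1 to day 4 per well (14-21 replicate wells of 5-15 animals).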

CN1CC2c3ccccc3Oc3ccc(Cl)cc3C2C1 (stereo not drawn) [Asenapine]
[1]
Conditions	food intake
0.01 µM	0.00861
0.03 µM	0.0107
0.1 µM	0.0122
0.3 µM	0.0127
1 µM	0.0127
3 µM	0.0112

CN(C)CCCN1c2ccccc2Sc2ccc(Cl)cc21 [Chlorpromazine]
[1]
Conditions	food intake
0.05 µM	0.0145
0.1 µM	0.0149
0.2 µM	0.0171
0.5 µM	0.0191
0.75 µM	0.0204
1 µM	0.0201
2 µM	0.0233
5 µM	0.0214

CN(C)CC/C=C1/c2ccccc2Sc2ccc(Cl)cc21 [Chlorprothixene]
[1]
Conditions	food intake
0.4 µM	0.0203
2 µM	0.0255
10 µM	0.0194

CN1CCN(C2=Nc3ccccc3Oc3ccc(Cl)cc32)CC1 [Loxapine]
[1]
Conditions	food intake
0.05 µM	0.0139
0.5 µM	0.0143
5 µM	0.0196
10 µM	0.0212
20 µM	0.0217
50 µM	0.0234
100 µM	0.023
200 µM	0.0195

Cc1cc2c(s1)Nc1ccccc1N=C2N1CCN(C)CC1 [Olanzapine]
food intake, Caenorhabditis elegans
Conditions	0.5 µM	5 µM	20 µM	50 µM	100 µM	200 µM
genotype: ser-5(vq1)	0.0069	0.00729	0.0081	0.00845	0.00859	0.00839
genotype: wt	0.00731	0.00919	0.0102	0.0117	0.0138	0.0148

[1]
Conditions	food intake
0.05 µM	0.0155
0.5 µM	0.0153
5 µM	0.0152
10 µM	0.0159
20 µM	0.015
50 µM	0.0149
100 µM	0.0184
200 µM	0.0186

OCCOCCN1CCN(C2=Nc3ccccc3Sc3ccccc32)CC1 [Quetiapine]
food intake, Caenorhabditis elegans
Conditions	0.1 µM	3 µM	10 µM	30 µM	100 µM	200 µM
genotype: ser-5(vq1)	0.00593	0.00574	0.00662	0.00674	0.00602	0.0055
genotype: wt	0.00754	0.00775	0.00993	0.0118	0.0127	0.0103

[1]
Conditions	food intake
0.1 µM	0.00598
3 µM	0.00727
10 µM	0.00847
30 µM	0.0103
100 µM	0.0115
200 µM	0.0118

NCCc1c[nH]c2ccc(O)cc12 [Serotonin]
food intake, Caenorhabditis elegans
Conditions	100 µM	500 µM	1000 µM	2000 µM	5000 µM	10000 µM
genotype: ser-5(vq1)	0.00664	0.00869	0.0118	0.0155	0.0182	0.0182
genotype: wt	0.00773	0.00951	0.0142	0.0176	0.0199	0.0189

O=C1Cc2cc(CCN3CCN(c4nsc5ccccc45)CC3)c(Cl)cc2N1 [Ziprasidone]
food intake, Caenorhabditis elegans
Conditions	0.01 µM	0.03 µM	0.1 µM	0.3 µM	1 µM	3 µM
genotype: ser-5(vq1)	0.00508	0.00569	0.00662	0.00664	0.00712	0.0061
genotype: wt	0.00821	0.00974	0.0135	0.0153	0.0145	0.0145

[1]
Conditions	food intake
0.01 µM	0.00881
0.03 µM	0.0107
0.1 µM	0.0128
0.3 µM	0.0136
1 µM	0.0136
3 µM	0.0138

— the supplement of paper PMC6288085
